pEC50: −log10 of the molar value.
Target: GLP-1 Receptor (Homo sapiens, UniProt P43220)
Experiment: GLP-1R agonist cAMP stimulation assay (HEK293/GLP1R/CRE-LUC cells, Cisbio cAMP dynamic 2 kit)
Assay type: cell-based
Settings: Table 3, HEK293/GLP1R/CRE-LUC cells, 30 min
Protocol: Activation of GLP-1 receptor is known to stimulate cyclic AMP (cAMP) production in cells which indicates primary coupling to the G as subunit of the G protein heterotrimeric complex.
To optimize functional activity directed toward G as coupling, a HEK293/CRE-Luc cell line developed by HDB stably expressing the GLP-1 Receptor was used. 200× concentration of compound working solutions were prepared (Agilent Technologies Bravo) with ½ log serial dilution in 384-well Echo LDV plate (Labcyte, CatOLP-0200). 50 nL/well 200× concentration of compound working solutions were moved to 384-well white low volume plate (Greiner, Cat4784075) using Labcyte ECH0550.1×10^5 cells/mL HEK293/GLP1R/CRE-LUC (HD Biosciences) cell suspensions prepared with assay buffer (DPBS containing 0.5 mM IBMX (Sigma, Cat15879) and 0.10 BSA (GENVIEW, Cat4FA016-100g)), 10 uL cell suspensions were added to each well of previous generated assay plate which already contains 50 n^1 compound at 200 xconcentration using ThermioFisher Multidrop Combi (1000 cells/well). Seal the plate and incubate at 37 with […] for 30 m.
After incubation the cAMP assay signal was generated using cAMP dynamic 2 Kit (Cisbio). 5 μL cAMP-d2 working solution was added to each well, followed with 5 L Anti-cAMP antibody-cryptate working solution added to each well using ThermoFisher Multidrop Combi. Incubate at room temperature for 1 hour protected from light. Read the fluorescence at 665 and 615 nm with Reader PerkinElmer EnVision. % oActivity=100%×(mean RLU of test sample−mean RLU of vehicle control)/(mean RLU of MAX control−mean RLU of vehicle control)

GLP-1 Receptor, sequence (P43220 24-463, species assumed): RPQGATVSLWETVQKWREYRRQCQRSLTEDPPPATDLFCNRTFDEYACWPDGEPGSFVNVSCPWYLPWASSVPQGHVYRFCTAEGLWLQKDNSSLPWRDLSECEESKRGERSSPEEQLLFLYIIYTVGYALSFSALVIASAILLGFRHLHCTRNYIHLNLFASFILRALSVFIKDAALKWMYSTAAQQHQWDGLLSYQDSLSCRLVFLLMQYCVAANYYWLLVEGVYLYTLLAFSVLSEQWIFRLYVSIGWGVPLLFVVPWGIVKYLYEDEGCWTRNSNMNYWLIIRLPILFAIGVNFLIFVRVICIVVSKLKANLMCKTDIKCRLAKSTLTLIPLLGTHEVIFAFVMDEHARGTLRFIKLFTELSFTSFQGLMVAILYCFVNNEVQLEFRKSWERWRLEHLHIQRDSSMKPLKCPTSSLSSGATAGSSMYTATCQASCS

Row | SMILES | pEC50
1 | CN=S(=O)(c1ccc(-n2ccn(-c3c4c(nn3-c3cc(C)c(F)c(C)c3)CCN(C(=O)c3cc5cc(C6CCOCC6)ccc5n3[C@@]3(c5noc(=O)[nH]5)C[C@@H]3C)[C@H]4C)c2=O)c(F)c1)C1CC1 (single isomer, unassigned) [Compound 222] | 10.08
2 | Cc1cc(-n2nc3c(c2-n2ccn(-c4ccc(S(=O)(=NC5CC5)C5CC5)cc4F)c2=O)[C@H](C)N(C(=O)c2cc4cc([C@H]5CCOC(C)(C)C5)ccc4n2[C@@]2(c4noc(=O)[nH]4)C[C@@H]2C)CC3)cc(C)c1F (single isomer, unassigned) [Compound 209] | 9.66
3 | CN=S(=O)(c1ccc(-n2ccn(-c3c4c(nn3-c3cc(C)c(F)c(C)c3)CCN(C(=O)c3cc5cc([C@H]6CCOC(C)(C)C6)ccc5n3[C@@]3(c5noc(=O)[nH]5)C[C@@H]3C)[C@H]4C)c2=O)c(F)c1Cl)C1CC1 (single isomer, unassigned) [Compound 215] | 10.13
4 | Cc1cc(-n2nc3c(c2-n2ccn(-c4ccc5c(c4)CCS(C)(=O)=N5)c2=O)[C@H](C)N(C(=O)c2cc4cc([C@H]5CCOC(C)(C)C5)ccc4n2[C@@]2(c4noc(=O)[nH]4)C[C@@H]2C)CC3)cc(C)c1F (single isomer, unassigned) [Compound 228] | 9.47
5 | CN=S(=O)(c1cc(F)c(-n2ccn(-c3c4c(nn3-c3cc(C)c(F)c(C)c3)CCN(C(=O)c3cc5cc([C@H]6CCOC(C)(C)C6)ccc5n3[C@@]3(c5noc(=O)[nH]5)C[C@@H]3C)[C@H]4C)c2=O)cc1C)C1CC1 (single isomer, unassigned) [Compound 193] | 10.00
6 | Cc1cc(-n2nc3c(c2-n2ccn(-c4ccc(C5CCS(=N)(=O)CC5)cc4)c2=O)[C@H](C)N(C(=O)c2cc4cc(C5CCOCC5)ccc4n2[C@@]2(c4noc(=O)[nH]4)C[C@@H]2C)CC3)cc(C)c1F (single isomer, unassigned) [Compound 182] | 10.11
7 | Cc1cc(-n2nc3c(c2-n2ccn(-c4ccc5c(c4)CS(C)(=O)=N5)c2=O)[C@H](C)N(C(=O)c2cc4cc(C5CCOCC5)ccc4n2[C@@]2(c4noc(=O)[nH]4)C[C@@H]2C)CC3)cc(C)c1F (some centres unmarked) [Compound 225] | 10.55
8 | CN=S(=O)(c1ccc(-n2ccn(-c3c4c(nn3-c3cc(C)c(F)c(C)c3)CCN(C(=O)c3cc5cc([C@H]6CCOC(C)(C)C6)ccc5n3[C@@]3(c5noc(=O)[nH]5)C[C@@H]3C)[C@H]4C)c2=O)c(Cl)c1)C1CC1 (single isomer, unassigned) [Compound 205] | 10.14
9 | Cc1cc(-n2nc3c(c2-n2ccn(-c4ccc5c(c4)C=CS(C)(=O)=N5)c2=O)[C@H](C)N(C(=O)c2cc4cc([C@H]5CCOC(C)(C)C5)ccc4n2[C@@]2(c4noc(=O)[nH]4)C[C@@H]2C)CC3)cc(C)c1F (single isomer, unassigned) [Compound 230] | 10.32
10 | Cc1cc(-n2nc3c(c2-n2ccn(-c4ccc(S(C)(=O)=NC#N)cc4)c2=O)[C@H](C)N(C(=O)c2cc4cc(C5CCOCC5)ccc4n2[C@@]2(c4noc(=O)[nH]4)C[C@@H]2C)CC3)cc(C)c1F (single isomer, unassigned) [Compound 113] | 10.46
11 | CCS(=O)(=NC)c1ccc(-n2ccn(-c3c4c(nn3-c3cc(C)c(F)c(C)c3)CCN(C(=O)c3cc5cc(C6CCOCC6)ccc5n3C[C@@H]3CCO3)[C@H]4C)c2=O)cc1 (single isomer, unassigned) [Compound 162] | 8.49
12 | Cc1cc(-n2nc3c(c2-n2ccn(-c4ccc(S(C)(=N)=O)cc4)c2=O)[C@H](C)N(C(=O)c2cc4cc(N5CCOCC5)ccc4n2C2(c4noc(=O)[nH]4)CC2)CC3)cc(C)c1F (some centres unmarked) [Compound 106] | 9.17
13 | Cc1cc(-n2nc3c(c2-n2ccn(-c4ccc5c(c4)CCS(C)(=O)=N5)c2=O)[C@H](C)N(C(=O)c2cc4cc([C@H]5CCOC(C)(C)C5)ccc4n2[C@@]2(c4noc(=O)[nH]4)C[C@@H]2C)CC3)cc(C)c1F (single isomer, unassigned) [Compound 229] | 10.38
14 | CCS(=N)(=O)c1ccc(-n2ccn(-c3c4c(nn3-c3cc(C)c(F)c(C)c3)CCN(C(=O)c3cc5cc(C6CCOCC6)ccc5n3[C@@]3(c5noc(=O)[nH]5)C[C@@H]3C)[C@H]4C)c2=O)c(Cl)c1 (single isomer, unassigned) [Compound 136] | 10.33
15 | CC1=Cc2cc(-n3ccn(-c4c5c(nn4-c4cc(C)c(F)c(C)c4)CCN(C(=O)c4cc6cc([C@H]7CCOC(C)(C)C7)ccc6n4[C@@]4(c6noc(=O)[nH]6)C[C@@H]4C)[C@H]5C)c3=O)ccc2S(C)(=O)=N1 (single isomer, unassigned) [Compound 206] | 10.70
16 | CN=S1(=O)CCC(Oc2ccc(-n3ccn(-c4c5c(nn4-c4cc(C)c(F)c(C)c4)CCN(C(=O)c4cc6cc([C@H]7CCOC(C)(C)C7)ccc6n4[C@@]4(c6noc(=O)[nH]6)C[C@@H]4C)[C@H]5C)c3=O)cc2C2CC2)CC1 (single isomer, unassigned) [Compound 236] | 10.28
17 | CN=S(=O)(c1ccc(-n2ccn(-c3c4c(nn3-c3cc(C)c(F)c(C)c3)CCN(C(=O)c3cc5cc([C@H]6CCOC(C)(C)C6)ccc5n3[C@@]3(c5noc(=O)[nH]5)C[C@@H]3C)[C@H]4C)c2=O)c(F)c1C(C)C)C1CC1 (single isomer, unassigned) [Compound 219] | 9.71
18 | Cc1cc(-n2ccn(-c3c4c(nn3-c3cc(C)c(F)c(C)c3)CCN(C(=O)c3cc5cc(C6CCOCC6)ccc5n3[C@@]3(c5noc(=O)[nH]5)C[C@@H]3C)[C@H]4C)c2=O)ccc1S(C)(=N)=O (some centres unmarked) [Compound 124] | 11.00
19 | CCS(=N)(=O)c1ccc(-n2ccn(-c3c4c(nn3-c3cc(C)c(F)c(C)c3)CCN(C(=O)c3cc5cc(C6CCOCC6)ccc5n3[C@@]3(c5noc(=O)[nH]5)C[C@@H]3C)[C@H]4C)c2=O)cc1 (single isomer, unassigned) [Compound 117] | 10.96
20 | Cc1cc(-n2nc3c(c2-n2ccn(-c4ccc(S5(=O)=NCCC5)cc4)c2=O)[C@H](C)N(C(=O)c2cc4cc(C5CCOCC5)ccc4n2C2(c4nsc(=O)[nH]4)CC2)CC3)cc(C)c1F (single isomer, unassigned) [Compound 130] | 9.64
21 | Cc1cc(-n2nc3c(c2N2CCN(c4ccc(S(C)(=N)=O)cc4)C2=O)[C@H](C)N(C(=O)c2cc4cc(C5CCOCC5)ccc4n2[C@@]2(c4noc(=O)[nH]4)C[C@@H]2C)CC3)cc(C)c1F (stereo partly drawn) [Compound 103, 3-[(1S,2S)-1-(2-{[(4S)-3-(3-{4-[azanylidene(methyl)(oxo)-λ^6-sulfanyl]phenyl}-2-oxotetrahydro-1H-imidazol-1-yl)-2-(4-fluoro-3,5-dimethylphenyl)-4-methyl-4,5,6,7-tetrahydropyrazolo[4,3-c]pyridin-5-yl]carbonyl}-5-(3,4,5,6-tetrahydro-2H-pyran-4-yl)indol-1-yl)-2-methylcyclopropyl]-4H,5H-1,2,4-oxadiazol-5-one] | 9.85
22 | Cc1cc(-n2nc3c(c2-n2ccn(-c4ccc5c(c4F)CCN=S5(=O)C4CC4)c2=O)[C@H](C)N(C(=O)c2cc4cc([C@H]5CCOC(C)(C)C5)ccc4n2[C@@]2(c4noc(=O)[nH]4)C[C@@H]2C)CC3)cc(C)c1F (single isomer, unassigned) [Compound 198] | 10.64
23 | Cc1cc(-n2nc3c(c2-n2ccn(-c4ccc(C5(S(C)(=N)=O)CC5)cc4)c2=O)[C@H](C)N(C(=O)c2cc4cc(C5CCOCC5)ccc4n2[C@@]2(c4noc(=O)[nH]4)C[C@@H]2C)CC3)cc(C)c1F (single isomer, unassigned) [Compound 176] | 10.62

Source: patent US12291529B2, “Heterocyclic GLP-1 agonists” (Gasherbrum Bio, Inc., priority 2023, dated 2025)
